In PubChem BioAssay (NCI) one finds GI50 and TGI data, which are given here for nine molecules.

Among the test systems are CCRF-CEM leukemia; HT29 colon; A549 NSCLC; RPMI-8226 leukemia; SNB-19 CNS; OVCAR-8 ovarian; SW-620 colon; M14 melanoma; OVCAR-3 ovarian; HOP-62 NSCLC.
Common to all, as to assay: DTP human tumour cell line panel, 48 h

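Results reflect a 48-hour exposure of cells in 96-well plates to compound at five concentrations. GI50 marks 50% less growth. The concentration for full growth arrest is given as TGI.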

Usually GI50 stands for the concentration at which growth is held to half of that of the control. A word on the TGI: it is the concentration at which net growth stops. For the molecule `C=CC/C(=C\COP(=O)(OCc1ccc([N+](=O)[O-])o1)N(C)CCCCCl)CC/C=C(\C)CCC=C(C)C` (stereo not given), the GI50 in the assay with CCRF-CEM leukemia is 0.0483 µM; with HT29 colon it was 11.6 µM; in the assay with A549 NSCLC, 13.9 µM; in the assay on RPMI-8226 leukemia, 4.66 µM; in the assay with SNB-19 CNS, 19.5 µM; with OVCAR-8 ovarian it was 12.6 µM. The results for the GI50 in the assay with SW-620 colon and in the assay with M14 melanoma were 9.44 µM and 4.04 µM, respectively. In addition, the TGI worked out at 15.9 µM with CCRF-CEM leukemia; 25.5 µM in the assay with HT29 colon; 26.9 µM with A549 NSCLC; 19.3 µM in the assay on RPMI-8226 leukemia; 34.9 µM with SNB-19 CNS; 25.1 µM with OVCAR-8 ovarian. Further, the TGI in the assay with SW-620 colon came out at 21.3 µM; in the assay with M14 melanoma it was 18.2 µM.

With `CCOC(=O)c1c(C)nc2c(c1N)CC(=O)N2CCc1ccccc1`, the GI50 with CCRF-CEM leukemia was 0.389 µM; in the assay with HT29 colon, 0.327 µM; in the assay with A549 NSCLC, 4.19 µM; in the assay with RPMI-8226 leukemia, 0.345 µM; in the assay with OVCAR-3 ovarian it was 0.412 µM; with SNB-19 CNS, 4.52 µM. Also, the GI50 with OVCAR-8 ovarian is 3.17 µM; in the assay on SW-620 colon it was 0.47 µM; in the assay on M14 melanoma, 0.845 µM; in the assay with HOP-62 NSCLC, 0.472 µM. Also, the TGI with CCRF-CEM leukemia turned out to be 14.4 µM; in the assay on HT29 colon, 14.5 µM; in the assay with A549 NSCLC, 36.9 µM; in the assay with RPMI-8226 leukemia, 5.6 µM; in the assay with OVCAR-3 ovarian it was 13.3 µM; with SNB-19 CNS, 23.3 µM. In addition, the total growth inhibition concentration (TGI) in the assay on OVCAR-8 ovarian came to 16.7 µM; in the assay with SW-620 colon, 11.1 µM; with M14 melanoma, 3.47 µM; in the assay on HOP-62 NSCLC, 14.7 µM.

Consider `Cc1ccc(C(SCC(N)C(=O)O)(c2ccccc2)c2ccccc2)cc1` (stereo not given), for which the 50% growth inhibitory concentration (GI50) in the assay with CCRF-CEM leukemia was 0.0832 µM; in the assay with HT29 colon, 0.365 µM; in the assay with A549 NSCLC, 0.153 µM; with RPMI-8226 leukemia, 0.0385 µM; in the assay with OVCAR-3 ovarian, 0.0391 µM; in the assay on SNB-19 CNS, 0.125 µM. Moreover, the GI50 is 0.139 µM with OVCAR-8 ovarian, 0.0437 µM in the assay with SW-620 colon, 0.0247 µM in the assay with M14 melanoma and 0.18 µM with HOP-62 NSCLC. The concentration for total growth inhibition (TGI) with CCRF-CEM leukemia is above 100 µM; in the assay with HT29 colon, above 100 µM; in the assay on A549 NSCLC, above 100 µM; in the assay with RPMI-8226 leukemia it was above 100 µM; in the assay on OVCAR-3 ovarian it was 0.158 µM; in the assay on SNB-19 CNS, above 100 µM. Besides, the TGI in the assay on OVCAR-8 ovarian is above 100 µM; with SW-620 colon, above 69.8 µM; in the assay with M14 melanoma, 0.0663 µM; with HOP-62 NSCLC, above 49.7 µM.

As for `COc1ccc(-c2cc(-c3cc(Cl)cc(Br)c3O)[nH]c(=O)n2)cc1`, the TGI in the assay on CCRF-CEM leukemia was 70.7 µM; in the assay with HT29 colon, 39.4 µM; in the assay on A549 NSCLC it was 33.7 µM; in the assay on RPMI-8226 leukemia it was 49 µM; with OVCAR-3 ovarian it was 31.5 µM; in the assay with SNB-19 CNS, 57.2 µM. The TGI in the assay with OVCAR-8 ovarian was found to be 37.2 µM; in the assay on SW-620 colon, 46.9 µM; with M14 melanoma, 43.3 µM; with HOP-62 NSCLC, 28.1 µM.

As for `O=[N+]([O-])c1ccccc1C=NC12CC3CC(CC(C3)C1)C2`, the TGI in the assay with CCRF-CEM leukemia, with HT29 colon, in the assay with A549 NSCLC, in the assay with RPMI-8226 leukemia, in the assay with OVCAR-3 ovarian and with SNB-19 CNS was above 100 µM in each case. Moreover, the TGI in the assay with OVCAR-8 ovarian, with SW-620 colon, with M14 melanoma and in the assay on HOP-62 NSCLC was above 100 µM each time.

With `CC(/C=C/c1ccccc1)=N\NC(N)=S`, the TGI in the assay with CCRF-CEM leukemia is above 100 µM; with HT29 colon it was above 100 µM; with A549 NSCLC, above 100 µM; in the assay with RPMI-8226 leukemia, 93.5 µM; with OVCAR-3 ovarian it was 66.8 µM; with SNB-19 CNS, 79.2 µM. Besides, the TGI in the assay on OVCAR-8 ovarian was above 100 µM; in the assay on SW-620 colon, above 100 µM; with M14 melanoma, 88.4 µM; in the assay on HOP-62 NSCLC it was above 100 µM.

Consider `CCCCN[C@H]1C2C3CC4C5CC(C42)C1(C)C53` (stereo not given in full), for which the TGI in the assay on CCRF-CEM leukemia, in the assay on HT29 colon, in the assay with A549 NSCLC, with RPMI-8226 leukemia, in the assay with OVCAR-3 ovarian and in the assay with SNB-19 CNS was above 100 µM throughout. Moreover, the TGI with SW-620 colon, with M14 melanoma and with HOP-62 NSCLC was above 100 µM each time.

In the case of `Cc1cnc2c(c1)C(=O)C1=C(OC(C)(C)CC1O)C2=O` (stereo not given), the TGI in the assay on CCRF-CEM leukemia is 51.1 µM; in the assay on HT29 colon, 43.6 µM; in the assay on A549 NSCLC, 31.9 µM; in the assay with RPMI-8226 leukemia, 60.6 µM; in the assay on OVCAR-3 ovarian, 23.4 µM; with SNB-19 CNS it was 31.6 µM. Besides, the TGI in the assay on OVCAR-8 ovarian is 35.6 µM; in the assay with SW-620 colon, 28.5 µM; with M14 melanoma, 30.5 µM; in the assay on HOP-62 NSCLC, 34 µM.

As to `N=C(N)c1ccc(NCCOCCNc2ccc(C(=N)N)cc2)cc1`, the GI50 with CCRF-CEM leukemia was above 100 µM; with HT29 colon, 29.5 µM; in the assay with A549 NSCLC, 14.4 µM; in the assay on RPMI-8226 leukemia, 22 µM; in the assay with OVCAR-3 ovarian it was 69.1 µM; in the assay on SNB-19 CNS, 27.3 µM. Further, the GI50 in the assay with OVCAR-8 ovarian was 34.4 µM; in the assay with SW-620 colon it was 63.6 µM; with M14 melanoma, 55.4 µM; in the assay with HOP-62 NSCLC, 33.2 µM. For the same molecule, the TGI in the assay on CCRF-CEM leukemia, with HT29 colon, with A549 NSCLC, with RPMI-8226 leukemia, in the assay with OVCAR-3 ovarian and with SNB-19 CNS was above 100 µM throughout. The TGI in the assay on OVCAR-8 ovarian, in the assay on SW-620 colon, in the assay on M14 melanoma and with HOP-62 NSCLC was above 100 µM each time.
